Reference: patent US12234230B2, “Substituted benzyl-triazole compounds for Cbl-b inhibition, and further uses thereof” (Nurix Therapeutics, Inc., priority 2019, dated 2025)

Experiments:
Cbl-b = Cbl-b (Homo sapiens (Human), UniProt Q13191); test: Cbl-b displacement assay (Cbl-b inhibition assay), Biological Example 1; type: binding; details: 0.125 nM Cbl-b final concentration (Low); read-out: Cbl-b activity IC50 (Low)
Description: The ability of candidate compounds to displace a known inhibitor and thereby inhibit Cbl-b activity was measured by monitoring the interaction of Cbl-b with a fluorophore-labeled probe in the presence of the candidate compound.
Following the one hour incubation, the plates were read for TR-FRET signal at 520/620 nm using an Envision plate reader (Perkin Elmer).

[1] = test system: primary human total T-cells; test: Primary human total T-cell activation (IL-2 secretion, CD25 surface staining), Biological Example 2; details: fold change over baseline; for CD25 staining CD3/CD28 0.3 μM / IL-2 secretion CD3/CD28 0.3 μM: 0.3 μM inhibitor; for CD25 staining CD3/CD28 0.3 μM / IL-2 secretion CD3/CD28 0.3 μM / CD25 staining CD3/CD28 1 μM / IL-2 secretion CD3/CD28 1 μM: anti-CD3 and anti-CD28 co-stimulation; for CD25 staining CD3/CD28 1 μM / IL-2 secretion CD3/CD28 1 μM / CD25 staining CD3 1 μM / IL-2 secretion CD3 1 μM: 1 μM inhibitor; for CD25 staining CD3 1 μM / IL-2 secretion CD3 1 μM / CD25 staining CD3 3 μM / IL-2 secretion CD3 3 μM: anti-CD3 stimulation alone; for CD25 staining CD3 3 μM / IL-2 secretion CD3 3 μM: 3 μM inhibitor
Description: Peripheral blood mononuclear cells (PBMC) were obtained either: 1) by using Ficoll-Paque™ (GE Healthcare) for separation of peripheral blood hematopoietic cells from buffy coats of healthy human donors; or 2) directly from LeukoPak donations. […] The cells were rested overnight at 37° C. 5% CO2. The Cbl-inhibitor was added to 1×10^5 cells per well and the plate was incubated for one hour at 37° C. in 5% CO2 at the concentrations indicated (Table 3) with a final DMSO concentration of <0.1%. For samples stimulated with anti-CD3 antibody and anti-CD28 antibody (anti-CD3/anti-CD28), the Cbl-b inhibitor concentrations tested were 1 μM, and 0.3 μM. For samples stimulated with anti-CD3 antibody alone (anti-CD3), the Cbl-b inhibitor concentrations tested were 3 μM, and 1 μM. […] To prepare plates with plate bound anti-CD3 antibody (OKT3), 96-well round bottom tissue culture plates were coated with 100 μL of anti-CD3 antibody (OKT3) at 10 μg/mL for 4 hours at 37° C. 5% CO2 in phosphate buffered saline (PBS). […] Cells were stimulated for 48 hours prior to harvesting the cell free supernatant and staining the cell population for surface marker assessment by flow cytometry. Supernatants were analyzed for cytokine secretion, including IL-2 by ELISA (R&D Systems, Peprotech or Life Technologies) or Luminex multiplex kits (Procarta Life Technologies) following the manufacturer's protocol. Cells were stained with anti-CD25 antibody (BD Biosciences) to assess levels of surface marker of activation.
Readouts were reported as fold change over baseline. Baseline for this study was the measurement obtained from total human T-cells stimulated with anti-CD3 antibody and with soluble anti-CD28 antibody, wherein the cells were not incubated with a Cbl-b inhibitor (Table 3).

Chain of Cbl-b (Q13191 36-427): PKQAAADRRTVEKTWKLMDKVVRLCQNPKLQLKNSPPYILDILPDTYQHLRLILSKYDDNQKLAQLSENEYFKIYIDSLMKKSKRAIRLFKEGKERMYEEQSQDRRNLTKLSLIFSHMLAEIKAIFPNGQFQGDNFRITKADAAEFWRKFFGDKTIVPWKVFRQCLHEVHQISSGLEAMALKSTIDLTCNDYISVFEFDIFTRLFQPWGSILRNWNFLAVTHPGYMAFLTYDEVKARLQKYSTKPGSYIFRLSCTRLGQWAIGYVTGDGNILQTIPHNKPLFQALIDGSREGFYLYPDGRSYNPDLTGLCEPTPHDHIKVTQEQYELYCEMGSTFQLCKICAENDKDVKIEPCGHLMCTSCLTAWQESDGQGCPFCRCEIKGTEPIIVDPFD

Row | SMILES | IC50 (Cbl-b) [nM] | CD25 staining CD3/CD28 0.3 μM [1] | IL-2 secretion CD3/CD28 0.3 μM [1] | CD25 staining CD3/CD28 1 μM [1] | IL-2 secretion CD3/CD28 1 μM [1] | CD25 staining CD3 1 μM [1] | IL-2 secretion CD3 1 μM [1] | CD25 staining CD3 3 μM [1] | IL-2 secretion CD3 3 μM [1]
1 | C[C@H]1CCCN(Cc2cc3c(c(C(F)(F)F)c2)CN(c2cccc([C@]4(c5nncn5C)C[C@H](C#N)C4)c2)C3=O)C1 [Compound 39, (1S,3r)-3-(4-methyl-4H-1,2,4-triazol-3-yl)-3-(3-(6-(((S)-3-methylpiperidin-1-yl)methyl)-1-oxo-4-(trifluoromethyl)isoindolin-2-yl)phenyl)cyclobutane-1-carbonitrile] | < 5 | B (B indicates 1.24-1.39 fold) | A (A indicates >35 fold) | B (B indicates 1.24-1.39 fold) | A (A indicates >35 fold) | A (A indicates >2.5 fold) | A (A indicates >1.1 fold) | A (A indicates >2.5 fold) | A (A indicates >1.1 fold)
2 | C[C@@H]1CN(Cc2cc3c(c(C(F)(F)F)c2)CN(c2cccc([C@]4(c5nncn5C)C[C@H](C#N)C4)c2)C3=O)CCC1(F)F [Compound 40, (1R,3r)-3-(3-(6-(((R)-4,4-difluoro-3-methylpiperidin-1-yl)methyl)-1-oxo-4-(trifluoromethyl)isoindolin-2-yl)phenyl)-3-(4-methyl-4H-1,2,4-triazol-3-yl)cyclobutane-1-carbonitrile] | < 5 | – | B (B indicates 20-35 fold) | – | A (A indicates >35 fold) | A (A indicates >2.5 fold) | B (B indicates 0.70-1.1 fold) | A (A indicates >2.5 fold) | B (B indicates 0.70-1.1 fold)
3 | C[C@@H]1CN(Cc2cc3c(c(C(F)(F)F)c2)CN(c2cccc(C4(c5nncn5C)CC5(CC5)C4)c2)C3=O)CCC1(F)F [Compound 41, 6-[[(3R)-4,4-difluoro-3-methyl-1-piperidyl]methyl]-2-[3-[5-(4-methyl-1,2,4-triazol-3-yl)spiro[2.3]hexan-5-yl]phenyl]-4-(trifluoromethyl)isoindolin-1-one] | < 5 | – | B (B indicates 20-35 fold) | – | A (A indicates >35 fold) | A (A indicates >2.5 fold) | A (A indicates >1.1 fold) | A (A indicates >2.5 fold) | A (A indicates >1.1 fold)
4 | C[C@@H]1CN(Cc2cc3c(c(C(F)(F)F)c2)CN(c2cccc(C4(c5nncn5C)CC5(CC5)C4)c2)C3=O)CCO1 [Compound 43, (R)-2-(3-(5-(4-methyl-4H-1,2,4-triazol-3-yl)spiro[2.3]hexan-5-yl)phenyl)-6-((2-methylmorpholino)methyl)-4-(trifluoromethyl)isoindolin-1-one] | < 5 | B (B indicates 1.24-1.39 fold) | B (B indicates 20-35 fold) | B (B indicates 1.24-1.39 fold) | A (A indicates >35 fold) | A (A indicates >2.5 fold) | A (A indicates >1.1 fold) | A (A indicates >2.5 fold) | A (A indicates >1.1 fold)
5 | Cn1cnnc1C1(c2cccc(N3Cc4c(cc(CN5CCC[C@H](C(F)(F)F)C5)cc4C(F)(F)F)C3=O)c2)CC2(CC2)C1 [Compound 44, (S)-2-(3-(5-(4-methyl-4H-1,2,4-triazol-3-yl)spiro[2.3]hexan-5-yl)phenyl)-4-(trifluoromethyl)-6-((3-(trifluoromethyl)piperidin-1-yl)methyl)isoindolin-1-one] | < 5 | – | B (B indicates 20-35 fold) | – | A (A indicates >35 fold) | A (A indicates >2.5 fold) | A (A indicates >1.1 fold) | A (A indicates >2.5 fold) | A (A indicates >1.1 fold)
6 | C[C@@H]1CN(C(C)(C)c2cc3c(c(C(F)(F)F)c2)CN(c2cccc(C4(c5nncn5C)CC5(CC5)C4)c2)C3=O)CCO1 [Compound 45, (R)-2-(3-(5-(4-methyl-4H-1,2,4-triazol-3-yl)spiro[2.3]hexan-5-yl)phenyl)-6-(2-(2-methylmorpholino)propan-2-yl)-4-(trifluoromethyl)isoindolin-1-one] | < 5 | B (B indicates 1.24-1.39 fold) | B (B indicates 20-35 fold) | – | B (B indicates 20-35 fold) | A (A indicates >2.5 fold) | A (A indicates >1.1 fold) | A (A indicates >2.5 fold) | A (A indicates >1.1 fold)
7 | C[C@H]1CCCN(Cc2cc3c(c(C(F)(F)F)c2)CN(c2cccc(C4(c5nncn5C)COC4)c2)C3=O)C1 [Compound 46, 6-[[(3S)-3-methyl-1-piperidyl]methyl]-2-[3-[3-(4-methyl-1,2,4-triazol-3-yl)oxetan-3-yl]phenyl]-4-(trifluoromethyl)isoindolin-1-one] | < 5 | B (B indicates 1.24-1.39 fold) | A (A indicates >35 fold) | B (B indicates 1.24-1.39 fold) | A (A indicates >35 fold) | B (B indicates 1.5-2.5 fold) | A (A indicates >1.1 fold) | A (A indicates >2.5 fold) | A (A indicates >1.1 fold)
8 | C[C@@H]1CN(Cc2cc3c(c(C(F)(F)F)c2)CN(c2cccc(C4(c5nncn5C)COC4)c2)C3=O)CCC1(F)F [Compound 47, 6-[[(3R)-4,4-difluoro-3-methyl-1-piperidyl]methyl]-2-[3-[3-(4-methyl-1,2,4-triazol-3-yl)oxetan-3-yl]phenyl]-4-(trifluoromethyl)isoindolin-1-one] | < 5 | – | A (A indicates >35 fold) | – | A (A indicates >35 fold) | B (B indicates 1.5-2.5 fold) | B (B indicates 0.70-1.1 fold) | B (B indicates 1.5-2.5 fold) | C (C indicates <0.70 fold)
9 | C[C@H]1CCCN(Cc2cc3c(c(C(F)(F)F)c2)CN(c2cccc([C@]4(c5nncn5C)C[C@@H](CC#N)C4)c2)C3=O)C1 [Compound 48, 2-((1R,3s)-3-(4-methyl-4H-1,2,4-triazol-3-yl)-3-(3-(6-(((S)-3-methylpiperidin-1-yl)methyl)-1-oxo-4-(trifluoromethyl)isoindolin-2-yl)phenyl)cyclobutyl)acetonitrile] | < 5 | – | B (B indicates 20-35 fold) | – | A (A indicates >35 fold) | A (A indicates >2.5 fold) | A (A indicates >1.1 fold) | B (B indicates 1.5-2.5 fold) | B (B indicates 0.70-1.1 fold)
10 | C[C@@H]1CN(Cc2cc3c(c(C(F)(F)F)c2)CN(c2cccc([C@]4(c5nncn5C)C[C@@H](CC#N)C4)c2)C3=O)CCC1(F)F [Compound 49, 2-((1S,3s)-3-(3-(6-(((R)-4,4-difluoro-3-methylpiperidin-1-yl)methyl)-1-oxo-4-(trifluoromethyl)isoindolin-2-yl)phenyl)-3-(4-methyl-4H-1,2,4-triazol-3-yl)cyclobutyl)acetonitrile] | < 5 | B (B indicates 1.24-1.39 fold) | A (A indicates >35 fold) | B (B indicates 1.24-1.39 fold) | A (A indicates >35 fold) | A (A indicates >2.5 fold) | A (A indicates >1.1 fold) | A (A indicates >2.5 fold) | A (A indicates >1.1 fold)
11 | C[C@H]1CCCN(Cc2cc3c(c(C(F)(F)F)c2)CN(c2cccc([C@]4(c5nncn5C)C[C@H](CC#N)C4)c2)C3=O)C1 [Compound 50, 2-((1S,3r)-3-(4-methyl-4H-1,2,4-triazol-3-yl)-3-(3-(6-(((S)-3-methylpiperidin-1-yl)methyl)-1-oxo-4-(trifluoromethyl)isoindolin-2-yl)phenyl)cyclobutyl)acetonitrile] | < 5 | – | A (A indicates >35 fold) | – | A (A indicates >35 fold) | A (A indicates >2.5 fold) | A (A indicates >1.1 fold) | A (A indicates >2.5 fold) | A (A indicates >1.1 fold)
